Assay results: patent EP0063525A1, “Dibenzazepine tetracyclic derivatives, process for their preparation and pharmaceutical compositions containing them” (CENTRE NATIONAL DE LA RECHERCHE SCIENTIFIQUE (CNRS), priority 1981, dated 1982)
Where two headings read alike, the source gives them in different places.

Experiments:
Souris [1] = test: tetrabenazine hypothermia; type: in vivo; details: product i.p. 80 mg/kg 30 min before tétrabénazine 32 mg/kg i.v.
Description: (§1) Ce test permet de révéler également une activité antidépressive avec l'avantage d'une lecture plus rapide qu'avec la réserpine.
Les produits sont injectés 30 minutes avant l'administration de tétrabénazine.
Les températures sont relevées aux temps : 0, 30 minutes, 60 minutes, 90 minutes et 120 minutes.
(§2) Les souris sont réparties par lots de 5.
Les températures sont relevées avant l'injection de tétrabénazine, 30 minutes, 60 minutes, 90 minutes et 120 minutes après.
(§3) Le lot témoin comprend 20 souris.

Souris [2] = test: antireserpine activity: reserpine hypothermia; type: in vivo; details: réserpine 5 mg/kg i.p. 17 h before; for change in vivo at 50 mg/kg / change in vivo at 150 mg/kg: ip, 4 h, read-out: % d'augmentation par rapport aux témoins
Description: On note ensuite les températures témoins (réserpine), puis les températures 1, 2, 3 et 4 heures après l'administration des produits étudiés.
Les animaux sont répartis en lots de 4 animaux et reçoivent par voie intrapéritonéale la réserpine à une dose de 5 mg/kg. 17 heures après cette injection, on mesure la température corporelle de l'animal à l'aide d'une sonde thermocouple introduite dans le rectum; chaque lot reçoit ensuite la substance par voie intrapéritonéale. Le lot témoin reçoit la même quantité de solvant et par la même voie. La température corporelle est ensuite mesurée toutes les heures pendant 4 heures.
Les résultats sont rassemblés dans un tableau récapitulatif-où sont indiqués : • - la température moyenne pour chaque lot relevée 17 heures après l'injection de la réserpine, • - la moyenne des variations de température pour chaque lot relevées 1,2, 3 et 4 heures après l'injection de la substance étudiée, • - la somme des variations de températures pendant 4 heures, • - le pourcentage d'augmentation de la température pour chaque produit par rapport aux témoins.

[3] = acute toxicity in the mouse, intraperitoneal; type: in vivo, Souris; details: mouse, in vivo, ip, voie intrapéritonéale; for LD50 at 48 h: souris femelles, read-out: DL 50; for mortality at 48 h: read-out: Mortalité %
From the text: (§4) Les produits ont été administrés par voie intrapéritonéale à des souris femelles dont le poids variait de 18 à 30 g.
(§5) Les animaux injectés ont été maintenus dans une salle thermostatée, nourris et abreuvés à volonté.
(§6) La mortalité a été relevée à 1 heure, 4 heures, 24 heures et 48 heures.

souris femelles = test: acute toxicity in the mouse, intraperitoneal; type: in vivo; details: voie intrapéritonéale, dead mice of the group
From the text: as §4, §5, §6

Souris [4] = test: tetrabenazine ptosis; type: in vivo; details: product i.p. 100 mg/kg 30 min before tétrabénazine 32 mg/kg i.v.
Description: as §1, §2
Le ptosis est noté avant l'injection de tétrabénazine, 30 minutes, 60 minutes, 90 minutes et 120 minutes après.
On a adopté la notation suivante : • - 0 : pour un oeil ouvert, • - 1 : pour un oeil fermé au quart, • - 2 : pour un oeil fermé à moitié, • - 3 : pour un oeil fermé aux trois-quarts, • - 4 : pour un oeil fermé complètement.
as §3

| SMILES | LD50 at 48 h [3] | mortality at 48 h ([3]; 125 mg/kg) | mortality at 48 h ([3]; 250 mg/kg) | Mortalité en 1 heure (souris femelles; 125 mg/kg) | Mortalité en 48 h. (souris femelles; 125 mg/kg) | Mortalité en 1 heure (souris femelles; 250 mg/kg) | Mortalité en 48 h. (souris femelles; 250 mg/kg) | change in vivo at 50 mg/kg (Souris [2]; product i.p. 50 mg/kg) | variation de température T= 2h (Souris [2]; product i.p. 50 mg/kg) | variation de température T=3h (Souris [2]; product i.p. 50 mg/kg) | variation de température T=4h (Souris [2]; product i.p. 50 mg/kg) | mortality at 48 h ([3]; 50 mg/kg) | mortality at 48 h ([3]; 100 mg/kg) | mortality at 48 h ([3]; 500 mg/kg) | Mortalité en 1 heure (souris femelles; 50 mg/kg) | Mortalité en 48 h. (souris femelles; 50 mg/kg) | Mortalité en 1 heure (souris femelles; 100 mg/kg) | Mortalité en 48 h. (souris femelles; 100 mg/kg) | Mortalité en 1 heure (souris femelles; 500 mg/kg) | change in vivo at 150 mg/kg (Souris [2]; product i.p. 150 mg/kg) | further results |
| --- | --- | --- | --- | --- | --- | --- | --- | --- | --- | --- | --- | --- | --- | --- | --- | --- | --- | --- | --- | --- | --- |
| O=C(O)CCCCCCNC1c2ccccc2CCc2ccccc21 [Aminep-tine, amineptine, reference compound] |  |  |  |  |  |  |  |  |  |  |  |  |  |  |  |  |  |  |  |  | inhibition in vivo at 80 mg/kg (Souris [1]; ip, 2 h, hypothermie, read-out: % de protection): 51%; Température après tétrabénazine 30 minutes (Souris [1]): -1,8; Température après tétrabénazine 60 minutes (Souris [1]): -1,8; Température après tétrabénazine 90 minutes (Souris [1]): -1,1; Température après tétrabénazine 120 minutes (Souris [1]): -0,2; Température après tétrabénazine Total (Souris [1]): -4,2; variation de température T=1h (Souris [2]; product i.p. 80 mg/kg): +1,5; variation de température T= 2h (Souris [2]; product i.p. 80 mg/kg): +1,6; variation de température T=3h (Souris [2]; product i.p. 80 mg/kg): +1; variation de température T=4h (Souris [2]; product i.p. 80 mg/kg): +0,1 |
| c1ccc(-c2nn(-c3ccccc3)c3c2-c2ccccc2Nc2ccccc2-3)cc1 [compound 12, diphényl-1,3 dihydro-1,8 (dibenzo[b,f]pyrazolo[3,4-d]) azépine] | > 250 mg/kg | 0% | 0% | 0 | 0 | 0 | 0 | 10% | +0,4 | +0,3 | +0,4 |  |  |  |  |  |  |  |  |  |  |
| CN(C)CCCN1c2ccccc2-c2c(-c3ccccc3)nn(-c3ccccc3)c2-c2ccccc21 [compound 14, (γ-diméthylaminopropyl)-8-diphényl-1,3 dihydro-1,8 (dibenzo [b,f]pyrazolo [3,4-d])azépine] | 200 mg/kg |  | 80% |  |  | 2 | 4 |  |  |  |  | 0% | 0% | 100% | 0 | 0 | 0 | 0 | 3 | 40% | Mortalité en 48 h. (souris femelles; 500 mg/kg): 5; variation de température T=1h (Souris [2]; product i.p. 150 mg/kg): +1,5; variation de température T= 2h (Souris [2]; product i.p. 150 mg/kg): +0,6; variation de température T=3h (Souris [2]; product i.p. 150 mg/kg): +0,6; variation de température T=4h (Souris [2]; product i.p. 150 mg/kg): +0,1 |
| CN(C)CCN1c2ccccc2-c2onc(-c3ccccc3)c2-c2ccccc21 [compound 17, (β-diméthylaminoéthyl)-8 phényl-3 (dibenzo [b,f]isoxazolo [4,5-d]) 8H azépine] | 175 mg/kg |  | 100% |  |  | 4 | 5 | 0% |  |  |  | 0% | 0% |  | 0 | 0 | 0 | 0 |  | 300% | mortality at 48 h ([3]; 150 mg/kg): 0%; mortality at 48 h ([3]; 200 mg/kg): 100%; Mortalité en 1 heure (souris femelles; 150 mg/kg): 0; Mortalité en 48 h. (souris femelles; 150 mg/kg): 0; Mortalité en 1 heure (souris femelles; 200 mg/kg): 5; Mortalité en 48 h. (souris femelles; 200 mg/kg): 5 |
| CC(CN(C)C)CN1c2ccccc2-c2onc(-c3ccccc3)c2-c2ccccc21 (centres unmarked) [compound 19, (méthyl-2 diméthylamino-3 propyl)-8 phényl-,3 (dibenzo [b ,f]isoxazolo [3 ,4-d]) 8H azépine] | 175 mg/kg |  | 60% |  |  | 1 | 3 |  |  |  |  | 0% | 0% | 100% | 0 | 0 | 0 | 0 | 5 | 110% | inhibition in vivo at 100 mg/kg (Souris [4]; ip, 2 h, ptosis, read-out: % de protection): 16%; Ptosis Total (Souris [4]): 25,3; Ptosis 30 minutes (Souris [4]; score 0-4 per eye): 5; Ptosis 60 minutes (Souris [4]; score 0-4 per eye): 6,3; Ptosis 90 minutes (Souris [4]; score 0-4 per eye): 6,7; Ptosis 120 minutes (Souris [4]; score 0-4 per eye): 7,3; Mortalité en 48 h. (souris femelles; 500 mg/kg): 5; variation de température T=1h (Souris [2]; product i.p. 150 mg/kg): +3,4; variation de température T= 2h (Souris [2]; product i.p. 150 mg/kg): +0,7; variation de température T=3h (Souris [2]; product i.p. 150 mg/kg): +0,7; variation de température T=4h (Souris [2]; product i.p. 150 mg/kg): -0,6 |
| CN(C)CCCN1c2ccccc2C=Cc2ccccc21 [compound 21, (α-diméthylaminopropyl)-5 dibenzo [b,f] 5H azépine, reference compound] | 100 mg/kg | 100% | 100% | 5 | 5 | 5 | 5 | 30% | -0,1 | +0,2 | +0,5 | 0% |  |  | 0 | 0 |  |  |  |  | mortality at 48 h ([3]; 75 mg/kg): 0%; Mortalité en 1 heure (souris femelles; 75 mg/kg): 0; Mortalité en 48 h. (souris femelles; 75 mg/kg): 0 |
